Converted amounts (≈) assume the structure as drawn.

The subject of this test is Trypanosoma cruzi. The experiment in a line: Growth inhibitory activity against Trypanosoma cruzi (Epimastigote). The format is functional, organism-based.
A word on the IC50: it is the concentration needed to halve the response being measured. A higher IC50 goes with weaker potency in that assay. Compound `CC(C)OC(=O)NCCOc1ccc(C[C@@H]2CCCC[C@H]2O)cc1` returned a half-inhibitory concentration (IC50) of 194 µg/mL (≈ 578 µM).

Take `CCCOC(=O)NCCOc1ccc(C[C@@H]2CCCCC23OCCO3)cc1`: the IC50 is greater than 200 µg/mL.

On to `CC(C)OC(=O)NCCOc1ccc(C[C@@H]2CCCCC23OCCO3)cc1`, for which the IC50 amounted to 145 µg/mL (≈ 384 µM).

`CC(=O)N1CCN(c2ccc(OC[C@H]3CO[C@](Cn4ccnc4)(c4ccc(Cl)cc4Cl)O3)cc2)CC1` [KETOCONAZOLE] gave a half-maximal inhibitory concentration (IC50) of 1.7 µg/mL (≈ 3.2 µM).

`CCCOC(=O)NCCOc1ccc(C[C@@H]2CCCC[C@@H]2O)cc1` showed a half-maximal inhibitory concentration (IC50) of 45.7 µg/mL (≈ 136 µM).

For `CCCOC(=O)NCCOc1ccc(C[C@@H]2CCCC[C@H]2O)cc1`, the 50% inhibitory concentration (IC50) turned out to be 37.3 µg/mL (≈ 111 µM).

`COC(=O)NCCOc1ccc(C[C@@H]2CCCC[C@H]2O)cc1` came in with a 50% inhibitory concentration (IC50) greater than 200 µg/mL.

As to `CCOC(=O)NCCOc1ccc(C[C@@H]2CCCC[C@H]2O)cc1`, 62.3 µg/mL (≈ 194 µM) corresponded to half-maximal inhibition (IC50).

For `C#CCOC(=O)NCCOc1ccc(C[C@@H]2CCCC[C@H]2O)cc1`, the IC50 was greater than 100 µg/mL.

The record behind these values is ChEMBL document CHEMBL1130677, “Growth inhibitory effect of juvenile hormone analogues on epimastigotes of Trypanosoma cruzi” (Bioorg Med Chem Lett, 1998).
